Source: publication PMC7278358, “Kinetic parameters of human aspartate/asparagine–β-hydroxylase suggest that it has a possible function in oxygen sensing” (The Journal of Biological Chemistry, 2020)
Values joined by “and” are separate entries in the source; they are usually repeats but may differ in a detail not shown here. Equal entries are not always repeated. Where two headings read alike, the source gives them in different places.

Key:
[1] = molecular target: T1, human His6–AspH315–758 (Homo sapiens, UniProt Q12797); experiment: AspH O2 dependence (variable O2 partial pressures, SPE-MS); type: biochemical; details: n = 4
T1 construct: a pET-28a(+) vector encoding for N-terminal His6-tagged AspH315–758 (His6–AspH315–758) was transformed into Escherichia coli BL21 (DE3) cells; made in house; host or cells: Escherichia coli BL21 (DE3)
T1 sequence (Q12797 315-758): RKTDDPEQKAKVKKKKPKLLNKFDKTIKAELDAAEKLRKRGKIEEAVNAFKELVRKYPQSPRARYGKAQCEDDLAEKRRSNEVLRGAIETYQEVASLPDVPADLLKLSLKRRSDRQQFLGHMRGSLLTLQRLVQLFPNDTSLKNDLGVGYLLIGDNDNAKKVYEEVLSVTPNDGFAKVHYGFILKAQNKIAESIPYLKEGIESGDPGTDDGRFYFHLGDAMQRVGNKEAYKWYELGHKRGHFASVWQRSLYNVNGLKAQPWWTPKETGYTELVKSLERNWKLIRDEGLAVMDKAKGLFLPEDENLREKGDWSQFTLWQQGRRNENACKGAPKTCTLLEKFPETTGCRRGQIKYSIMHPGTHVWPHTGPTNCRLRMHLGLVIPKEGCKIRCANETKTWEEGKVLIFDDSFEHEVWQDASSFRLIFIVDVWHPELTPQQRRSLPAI
Protocol: For determining vmax^app and Km^app of AspH for O2, 2.2 μM hFX–CP101–119 (65 μl) in 50 mM HEPES (pH 7.5) were exposed in a gas-tight glass vial to variable O2 concentrations (in nitrogen; Fig. S7) using a mass flow controller ([32]). After equilibrating the atmosphere, co-factor and co-substrates were added by syringe (1.5 μl of 4.7 mM LAA and 0.99 mM 2OG in MQ-grade water and 1.5 μl of 0.99 mM FAS in MQ-grade water) followed by 2.0 μl of 3.5 μM His6–AspH315–758 in 50 mM HEPES (pH 7.5) at 20 °C. The enzyme reaction was stopped after the indicated reaction time by the addition of 15% (v/v) aqueous formic acid (4 μl) and analyzed by SPE-MS using the configurations given above; the experiments were performed in independent quadruplicates. The data were analyzed as described, and the slopes of the initial reaction rates (Fig. S7) were fitted to a Michaelis–Menten plot using nonlinear regression (GraphPad Prism 5).

[2] = system: KDM4E; details: read-out: Km app(O2); cited from earlier work
From the text: (§1) At higher partial pressures of O2, the standard deviation among independent quadruplicates increased slightly because of efficient peptide hydroxylation requiring short reaction times; however, maximum velocities (vmax^app) were still similar within experimental error, indicating good data quality and reproducibility (Fig. S7). The AspH Km^app for O2 is high compared with the values reported for most oth ...

[3] = system: collagen prolyl 4-hydroxylases; details: read-out: Km app(O2); cited from earlier work
From the text: as §1

[4] = system: KDM4A; details: cited from earlier work
From the text: as §1

[5] = system: FIH; details: peptide substrate HIF-1α CAD35mer, same experimental setup, cited from earlier work
From the text: as §1

[6] = system: PHD2; details: same experimental setup, cited from earlier work; for Km: read-out: Km app for O2
From the text: as §1

[7] = system: human phytanoyl-CoA hydroxylase; details: read-out: Km app(O2); cited from earlier work
From the text: as §1

[8] = system: KDM6A; details: read-out: Km app(O2); cited from earlier work
From the text: as §1

[9] = system: KDM4C; details: read-out: Km app(O2); cited from earlier work
From the text: as §1

[10] = O2 varied, hFX–CP101–119 substrate

Km app of AspH for O2 [%] ([1]; O2 in nitrogen, 100 μM LAA, 20 μM 2OG, 20 μM FAS, 2.0 μM hFX-CP101-119, 0.1 μM His6-AspH315-758, pH 7.5, 20 °C): 47.2 ± 8.1 % O2
vmax app ([1]; O2 varied (in nitrogen), 100 μM LAA, 20 μM 2OG, 20 μM FAS, 2.0 μM hFX–CP101–119, 0.1 μM His6–AspH315–758, 50 mM HEPES pH 7.5, 20 °C): 0.0207 ± 0.0018 µM/s
Km ([1]; O2 varied (in nitrogen), 100 μM LAA, 20 μM 2OG, 20 μM FAS, 2.0 μM hFX–CP101–119, 0.1 μM His6–AspH315–758, 50 mM HEPES pH 7.5, 20 °C, O2 % converted by y[μM] = 9.026·x[%], read-out: Km app for O2): ~426 µM and 426 µM
kcat [1, 10]: 0.23 ± 0.04 s⁻¹
kcat/Km [1, 10]: 540 ± 130 M⁻¹ s⁻¹
Structure (SMILES): O=O [O2]
Km [2]: 197 ± 16 µM
Km [3]: 40 µM
Km ([4]; peptide substrate H3_1–15K9me3, same experimental setup, read-out: Km app for O2): ~173 µM and 173 µM
Km ([4]; read-out: Km app(O2)): 57 ± 10 µM
kcat [5]: 0.56 ± 0.04 s⁻¹
Km ([5]; read-out: Km app for O2): ~110 µM and 110 µM
kcat ([6]; peptide substrate HIF-1α CODD): 0.06 ± 0.01 s⁻¹
Km ([6]; peptide substrate HIF-1α CODD): 460 ± 30 µM
kcat ([6]; peptide substrate HIF-1α NODD): 0.028 ± 0.001 s⁻¹
Km ([6]; peptide substrate HIF-1α NODD): > 450 µM
Km [7]: 93 ± 43 µM
Km [8]: 180 ± 40 µM
Km [9]: 158 ± 13 µM
